Measured values as given in patent EP0828750B1, “PALLADIUM CATALYZED NUCLEOSIDE MODIFICATION METHODS USING NUCLEOPHILES AND CARBON MONOXIDE” (EC Technology LLC, priority 1995, dated 1996).

Experiments:
[1] = test system: human foreskin fibroblasts (HFF); assay: Cytotoxicity assay (IC50 determination), crystal violet staining; assay type: cell-based; conditions: Fibroblast, 336 h, concentration required to inhibit cellular proliferation by 50%, 96-well, 14 day incubation, crystal violet absorbance 620nm
Description: (§1) Newborn human foreskins were obtained immediately post-circumcision and placed in minimal essential medium (MEM) supplemented with vancomycin, fungizone, penicillin and gentamycin (all present at standard concentrations) and maintained for four hours under tissue culture conditions (37°C, 5% CO2). Supplemented MEM was then removed and the foreskin material macerated. Tissue fragments were then washed exhaustively (using supplemented MEM) to remove residual erythrocyte contamination.
The erythrocyte-free cell fragments were then exposed to trypsin solution (0.25%) for 15 min with continuous stirring. […]
HFF were seeded into 96-well tissue culture plates at a concentration of 2.5x10^4 cells/ml (100µl MEM with 10% FBS was used as the culture medium) and maintained under tissue culture conditions for 24H prior to experimentation. […] To the first row of each 96-well plate, 125 µl of control media or experimental drug CT1146-26 or CT1146-28 (initial concentration determined by the overall concentration range desired) was added in triplicate wells. […]
Following the incubation period, medium was removed from all wells and the cells stained with 0.1% crystal violet solution for 30 min followed by several wash cycles to remove residual stain. The crystal violet stained plates were then allowed to air dry for 24H prior to reading well absorbance values (620nm) using a Skatron plate reader. […]

[2] = test system: human cytomegalovirus (CMV); assay: Plaque reduction assay using semi-solid overlay (EC50 determination); assay type: cell-based; conditions: for EC50: Human betaherpesvirus 5, 336 h, concentration required to inhibit viral cytopathogenicity by 50%, CMV plaques in HFF, agarose overlay, 14 days, drug range 100 to 0.03 µg/ml; for SI: Selectivity Index, SI = IC50/EC50
Description: as §1
The erythrocyte-free cell fragments were then exposed to trypsin solution (0.25%) for 15 min with continuous stirring. Tissue fragments were then allowed to settle out of suspension and the supernatant collected and passed through sterile cheesecloth into a flask containing MEM and 10% fetal bovine serum (FBS). The cheesecloth was washed with an additional volume of MEM containing 10% FBS (The flask containing MEM and 10% FBS was maintained on ice throughout the trypsinization procedure). The trypsinization procedure was repeated using fresh trypsin solution, until no additional cell removal from tissue fragments was observed. Cells removed by this process are predominantly human foreskin fibroblasts (HFF).
Cells contained in MEM with 10% FBS were pelleted by centrifugation (≅ 1000 RPM, 4°C, 10 min), the supernatant discarded and the pelleted cells suspended in a minimal volume of MEM with 10% FBS. HFF isolates were then plated into T-25 tissue culture flasks (the number of primary culture flasks used was based on the volume of the recovered cell pellet). HFF isolates were then maintained under tissue culture conditions (37°C, 5% CO2) until confluent. Primary cultures of HFF were sequentially expanded into larger format culture flasks using standard tissue culture procedures. HFF were maintained in the presence of vancomycin and fungizone through passage four.
HFF are plated into 6-well tissue culture plates and maintained under tissue culture conditions for approximately two days prior to use. On the date of assay, experimental drug solutions are prepared as 2X concentrations in 2X MEM. Serial dilutions of experimental drug are then performed (1:5) using 2X MEM. The approximate concentration range for experimental agents being 200 to 0.06 µg/ml. Each drug or control solution was then diluted 1:1 with 0.8% agarose solution. Following dilution with agarose solution, the final experimental drug concentration range was 100 to 0.03 µg/ml, with a final agarose overlay concentration of 0.4%. Viral material (CMV) was diluted in MEM with 10% FBS to yield a concentration of virus producing 20-30 plaques per well. […]
Following incubations, HFF were stained for 4-6H with a 1.5% solution of neutral red. The neutral red/agarose/MEM mixture is aspirated and viral plaques counted using a 10X steriomicroscope. […]

SMILES	IC50 [1]	EC50 [2]	SI [2]
CC(C)NC(=O)c1cn(C2OC(COP(=O)(O)O)C(O)C2O)c(=O)nc1N (stereo not drawn) [CT1146-26]	> 100 µg/mL	< 0.03 µg/mL	> 3333
CCCCNC(=O)c1cn(C2OC(COP(=O)(O)O)C(O)C2O)c(=O)nc1N (stereo not drawn) [CT1146-28]	> 100 µg/mL	< 0.03 µg/mL	> 3333
